In US20230088717A1, “NEW IMMUNOSTIMULATORS AND USE THEREOF IN IMMUNOTHERAPY” (NANTES UNIVERSITÉ, priority 2020, published 2023):
Where two headings read alike, the source gives them in different places.

Columns and labels:
[1] = tested on: iNKT cells; assay: iNKT cell activation: cytokine secretion (ELISA) after co-culture with glycolipid-loaded CD1d-transfected HEK293 or HeLa cells; format: cell-based, human; settings: for LogEC50 IFN-γ / LogEC50 IL-2 / LogEC50 IL-13 / EC50: 6 h co-culture; for Delta LogEC50 IFN-γ / Delta LogEC50 IL-2 / Delta LogEC50 IL-13: KRN7000 vs 6-PEG3-NH2-GalCer; for EC50: Homo sapiens, iNKT, 6 h
Method: (§1) Classically, CD1d expressing cells are incubated overnight in presence or in the absence of the compound to be assessed, allowing loading on the CD1d molecule. Then, CD1d cells are co-incubated with iNKTs. Six hours of co-culture are sufficient to be able to detect most of the cytokine release (such as IFN-γ, IL-13 and/or IL-2) in the supernatant. Various time of incubation, up to 48H, can be performed depending of the kinetic of some late cytokines (such as IL-10). The quantity or concentration of at least one cytokine is thus measured in the supernatant after an incubation time of from 6 hours to 48 hours. An increased quantity or concentration of at least one cytokine in the presence of the assessed compound by comparison to in its absence means that said compound is a iKNT stimulator.
(§2) To analyse ability of 6-PEG3-NHR-GalCer 2 and 6-Mal-PEGn-GalCer 3 to activate iNKTs, several types of presenting cells were used, such as HEK293 or HeLa cells transfected to express CD1d molecule on their membrane. Non-transfected cells were also used as negative control “at first glance” since presentation of glycolipids to iNKT cells is known to be dependent on CD1d.
(§3) These cells were then used as antigen presenting cells (APC) to compare the iNKT cell activation potency of the canonical α-GalCer (KRN7000) ligand to that of the analogue 6″-modified with an aminoPEG linking arm 6-PEG3-NH2-GalCer 2a. APC were loaded with glycolipids after co-incubation at various concentrations overnight. Next day, cells were washed and co-cultured with iNKTs (2 APC for 1 iNKT). After 6 hours, supernatants were collected, and cytokines secretions (IFN-γ and IL-2 for Th1 panel and IL-13 for Th2 panel) was measured by ELISA (FIGS. 2 and 3)
(§4) 6-PEG3-NHR-GalCer analogues of 6-PEG3-NH2-GalCer 2a were evaluated on transfected CD1d and non-CD1d Hela and HEK293 cells for secretion of INF-γ and IL13 stimulation (see FIGS. 10 and 11).

[2] = tested on: iNKT cells; assay: iNKT cell activation: cytokine secretion after co-culture with glycolipid-loaded non-transfected (non-CD1d) tumor cells; format: cell-based, human; settings: for secretion of cytokines: non-CD1d Hela and HEK293 cells
Method: as §1, §2, §3
To confirm this discovery, various other colon, lung, embryonic kidney, cervical cancer cells lines were screened by RT-PCR to define those that express small levels of CD1d and to confirm their ability to self-present the new potent iNKT agonist (see Table 6).
as §4

[3] = tested on: iNKT cells in PBMC; assay: iNKT phenotyping: expansion of iNKT cells in PBMC, CD8+/CD4+; format: cell-based, human; settings: PBMC cultured ten days with high dose of glycolipid (FIG. 8)
Method: Comparative study was run to establish either a CD4 or CD8 orientation of the immune response can be induced using 6-PEG3-NH2-GalCer 2a vs KRN7000 (see FIG. 8). PBMC were cultured in presence of an high dose of KRN or 6-PEG3-NH2-GalCer 2a, after ten days, phenotype of iNKTs was analysed by Flow Cytometry.

[4] = molecular target: T1, CD1d (Homo sapiens, UniProt P15813); assay: CD1d-dependency of iNKT activation: cytokine secretion in presence of anti-CD1d antibody; format: cell-based
T1 construct: endogenous in cells; host or cells: HEK293 (non-transfected) and HEK293-CD1d (transfected to express CD1d)
Method: It was then checked whether iNKT cells activation might be provided by a very low expression of CD1d on the proper non-CD1d tumor cells that cannot be detected by flow cytometry. To this aim, the same activation experiments were performed but in presence of an anti-CD1d antibody. HEK293 cells and HEK293-CD1d were loaded with 6-PEG3-NH2-GalCer a2 as described previously. Before co-culture with iNKTs cells, loaded presenting cells were co-incubated with the anti-CD1d antibody for 1 hours, iNKTs were added directly in suspension and co-cultured 6 hours before cytokine analysis in supernatant (ELISA). If activation signal was provided by presentation of the modified glycolipid through CD1d, it was expected to observe a blockage, or at least a decrease, of cytokine secretion after blocking the signal with the anti-CD1d antibody.

[5] = tested on: HeLa-CD1d cells; assay: Cytotoxicity induced by iNKTs on HeLa-CD1d cells (flow cytometry); format: cell-based; settings: HeLa CD1d transfected cells, 24 hours co-culture (FIG. 7)
Method: Moreover, 6-PEG3-NH2-GalCer 2a is not only one of a strongest activator of iNKTs cells known for cytokine secretions, but that he is also able to induce a better iNKT cytotoxicity effect than KRN7000. iNKT were co-cultured with HeLa CD1 d transfected cells for 24 hours in presence of various concentration of glycolipids, then, mortality of target HeLa-CD1d cells was analysed by Flow Cytometry.

[6] = tested on: HeLa-CD1d spheroid; assay: Cytotoxicity induced by iNKTs on HeLa-CD1d 3D spheroid model; format: cell-based; settings: 72 hours, preliminary data (FIG. 9B)
[7] = HEK293 (embryonic kidney), non transfected, as presenting cells
[8] = HeLa (cervix), non transfected, as presenting cells
[9] = Meso13 (mesotheliome) as presenting cells
[10] = Meso34 (mesotheliome) as presenting cells
[11] = Meso225 (mesotheliome) as presenting cells
[12] = SW1116 (colon) as presenting cells

T1 sequence (P15813 20-335): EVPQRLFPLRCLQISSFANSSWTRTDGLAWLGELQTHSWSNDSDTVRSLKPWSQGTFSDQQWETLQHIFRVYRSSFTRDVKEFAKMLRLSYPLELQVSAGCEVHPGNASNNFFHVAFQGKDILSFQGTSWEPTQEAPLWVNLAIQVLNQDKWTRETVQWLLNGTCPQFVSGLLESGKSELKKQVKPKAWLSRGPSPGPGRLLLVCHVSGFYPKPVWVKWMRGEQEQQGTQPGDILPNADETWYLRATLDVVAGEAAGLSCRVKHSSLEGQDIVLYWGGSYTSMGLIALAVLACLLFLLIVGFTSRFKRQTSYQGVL
T1 sequence (P61769 21-119 partner): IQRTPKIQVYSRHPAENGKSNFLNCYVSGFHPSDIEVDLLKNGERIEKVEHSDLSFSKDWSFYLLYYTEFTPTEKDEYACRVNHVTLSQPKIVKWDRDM

Question: With `CCCCCCCCCCCCCCCCCCCCCCCCCC(=O)N[C@@H](CO[C@H]1OC(COC(=O)NCCOCCOCCOCCNC(=O)CCOCCOCCOCCOCCOCCOCCNC(=O)CCN2C(=O)C=CC2=O)[C@H](O)C(O)[C@@H]1O)[C@H](O)[C@H](O)CCCCCCCCCCCCCC` (some centres unmarked) [6-Mal-PEG6-GalCer 3a] as the molecule, how does the “iNKT activation potency (cytokine release) relative to KRN7000” value ([1]; general statement, presenting cells not specified at the place) read?
Answer: ~10 fold

Question: Which results are given for `CCCCCCCCCCCCCCCCCCCCCCCCCC(=O)N[C@@H](CO[C@H]1O[C@H](CO)[C@H](O)[C@H](O)[C@H]1O)[C@H](O)[C@H](O)CCCCCCCCCCCCCC` [KRN7000, reference compound]?
Answer: LogEC50 IFN-γ ([1]; HEK293-CD1d presenting cells): −8.447; LogEC50 IL-2 ([1]; HEK293-CD1d presenting cells): −8.680; LogEC50 IL-13 ([1]; HEK293-CD1d presenting cells): −7.956; LogEC50 IFN-γ ([1]; HeLa-CD1d presenting cells): −8.653; LogEC50 IL-2 ([1]; HeLa-CD1d presenting cells): −9.315; LogEC50 IL-13 ([1]; HeLa-CD1d presenting cells): −7.841; IFN-γ secretion 10^−7M [2, 7]: Low; IFN-γ secretion 10^−7M [2, 8]: Low; IFN-γ secretion 10^−7M [2, 9]: Low; IFN-γ secretion 10^−7M [2, 10]: Low; IFN-γ secretion 10^−7M [2, 11]: Low; IFN-γ secretion 10^−7M [2, 12]: Low; secretion of cytokines [2]: very poorly active or ineffective; CD8+ / CD4+ orientation of the iNKT response [3]: seems to not distinguish CD4+ to CD8+ cells stimulation

Question: How did the “cytokine secretion / iNKT activation potency relative to KRN7000” value ([1]; CD1d-transfected HEK293 / HeLa cells) turn out when `CCCCCCCCCCCCCCCCCCCCCCCCCC(=O)N[C@@H](CO[C@H]1OC(COC(=O)NCCOCCOCCOCCN)[C@H](O)C(O)[C@@H]1O)[C@H](O)[C@H](O)CCCCCCCCCCCCCC` (some centres unmarked) [6-PEG3-NH2-GalCer 2a] was run?
Answer: ~100 fold

Question: What about the “Delta LogEC50 IFN-γ” value ([1]; HEK293-CD1d) of the same molecule?
Answer: 2.333

Question: What about the “Delta LogEC50 IL-2” value ([1]; HEK293-CD1d) of the same molecule?
Answer: 1.55

Question: And the “Delta LogEC50 IL-13” value ([1]; HEK293-CD1d)?
Answer: 2.534

Question: What about the “Delta LogEC50 IFN-γ” value ([1]; HeLa-CD1d) of the same molecule?
Answer: 1.877

Question: And the “Delta LogEC50 IL-2” value ([1]; HeLa-CD1d)?
Answer: 1.495

Question: What about the “Delta LogEC50 IL-13” value ([1]; HeLa-CD1d) of the same molecule?
Answer: 2.089

Question: What about the EC50 ([1]; HEK293-CD1d presenting cells, read-out: LogEC50 IFN-γ (converted)) of the same molecule?
Answer: 0.0166 nM

Question: What about the EC50 ([1]; HEK293-CD1d presenting cells, read-out: LogEC50 IL-2 (converted)) of the same molecule?
Answer: 0.0589 nM

Question: And the EC50 ([1]; HEK293-CD1d presenting cells, read-out: LogEC50 IL-13 (converted))?
Answer: 0.0324 nM

Question: And the EC50 ([1]; HeLa-CD1d presenting cells, read-out: LogEC50 IFN-γ (converted))?
Answer: 0.0295 nM

Question: And the EC50 ([1]; HeLa-CD1d presenting cells, read-out: LogEC50 IL-2 (converted))?
Answer: 0.0155 nM

Question: And the EC50 ([1]; HeLa-CD1d presenting cells, read-out: LogEC50 IL-13 (converted))?
Answer: 0.117 nM

Question: What about the “IFN-γ secretion 10^−7M” value ([2]; HCT116 (colon) as presenting cells) of the same molecule?
Answer: Low

Question: What about the “IFN-γ secretion 10^−7M” value [2, 7] of the same molecule?
Answer: High

Question: And the “IFN-γ secretion 10^−7M” value [2, 8]?
Answer: High

Question: What about the “IFN-γ secretion 10^−7M” value [2, 9] of the same molecule?
Answer: High

Question: And the “IFN-γ secretion 10^−7M” value [2, 10]?
Answer: High

Question: What about the “IFN-γ secretion 10^−7M” value [2, 11] of the same molecule?
Answer: High

Question: What about the “IFN-γ secretion 10^−7M” value [2, 12] of the same molecule?
Answer: High

Question: And the “secretion of cytokines” value [2]?
Answer: significant dose response secretion of cytokines

Question: What about the “inhibition of cytokine (IL-2) secretion by anti-CD1d antibody” value ([4]; CD1d-HEK293 positive cells (FIG. 5A)) of the same molecule?
Answer: only an incomplete inhibition

Question: What about the “inhibition of cytokine (IL-2) secretion by anti-CD1d antibody” value ([4]; non transfected (non CD1d) HEK293 cells (FIG. 5B)) of the same molecule?
Answer: almost completely eliminated

Question: And the “efficiency to induce iNKT cytotoxicity relative to KRN7000” value [5]?
Answer: ≥ 10 fold

Question: And the “CD8+ / CD4+ orientation of the iNKT response” value [3]?
Answer: induces a higher cytotoxic CD8+ response from PBMC cells than KRN7000

Question: And the “induction of cell death compared with KRN7000” value [6]?
Answer: more efficient than KRN7000 to induce cell death
